Measured values: patent US11420962B2, “Indene derivatives useful in treating pain and inflammation” (TARO PHARMACEUTICALS INC., priority 2018, dated 2022)

Legend:
[1] = Metabolism by human liver microsomes; type: in vitro ADME; conditions: Table 8; 10 µM, in the presence of NADPH, 1 mg/mL protein
Outline: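 Compound at 10 μM preincubated 10 min at 37 °C with human liver microsomes (1 mg/mL protein), 100 mM Tris HCl pH 7.5; started with 1 mM NADPH, run 60 min. Percent remaining at 60 min versus 0-time by LC-MS/MS analyte/internal-standard ratio, scored in bands.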

Mice (male, C57Bl/6) [2] = test: Formalin pain assay in mice; type: in vivo; conditions: Table 7; formalin 2.5%, left plantar
Method: Mice (male, C57BL/6) were placed singly in a Perspex chamber for approximately 30 min on three successive days to acclimate and thereby reduce stress-induced behaviors. On the fourth day, the experimental animals received a 25 μl injection of 2.5% formalin beneath the left plantar skin using a 29-gauge syringe. […] The total time spent on flinches/licking/biting of the hind paw was recorded by visual observation for every 5 min period/interval for total observation duration of 60 min in two phases, the early phase (0-5 min) and the late phase (15-40 min). Observers were blinded to the treatment group allocation.
For test compounds, the % protection from 0-60 min was used to assess activity. Scoring for the test compounds was as follows: “A” represents a % protection of 81 to 100%, “B” represents a % protection of 61 to 80%, “C” represents a % protection of 31 to 60% and “D” represents a % protection of 0 to 30%.

T cells = test: T cell proliferation (anti-CD3/anti-CD28 dynabeads, CCK-8); type: cell-based, mice; conditions: Table 4, mouse T cells, 72 hours after dynabeads, read-out: Scoring (IC50, cell proliferation)
Method: Spleens were obtained from six male, CD-1 outbred mice, approximately 8 weeks old. Cells were harvested under sterile conditions by forcing each spleen though a cell filter (pore size 100 μm diameter). A homogenous cell suspension was obtained by washing the cells in fresh medium and passing cells through a smaller cell filter (pore size 70 μm).
Untouched T cells were isolated using the Pan T cell isolation kit (Miltenyi Biotech). Briefly, cells were counted and incubated with the required volume of antibody cocktail for 5 minutes at 4° C. before addition of microbeads and incubation for 10 minutes at 4° C. Labeled cells were retained in a magnetic column while unlabeled cells (T cells) passed through the column and were retained for use in the assay.
Cell viability was assessed by Trypan Blue exclusion and found to be >99% prior to transfer to plates. Isolated T cells were seeded out in 96 well plates at a density of 50,000 cells per well and allowed to incubate for 60 minutes in a humidified cell culture (37° C., 5% CO2) incubator prior to compound treatment. The media used for this assay (TexMACS, Miltenyi Biotech) was previously optimized for proliferation of T cells in serum free conditions.
Representative compounds of the invention (i.e., test compounds) were prepared as 30 mM stocks in 100% DMSO. Test compounds were initially diluted in media to yield 3 mM stocks before an additional 1:10 dilution in media was performed to yield working stocks of 300 μM (1% DMSO). Subsequent dilutions were performed in media (supplemented with 1% DMSO). When added to the assay plates (1:10 dilution), these yielded final concentrations in the assay plates of in 0.1% DMSO. The reference compound, Cyclosporin A, was prepared in an identical manner as above.
Unstimulated and Stimulated Control wells received an identical volume of TexMACS media/1% DMSO at this time, resulting in a final concentration of 0.1% DMSO across the plate. Mouse anti-CD3/anti-CD28 dynabeads were prepared (following the manufacturers' instructions) in TexMACS media and added to appropriate wells to achieve a final concentration of 1 bead per cell. Unstimulated Control wells then received an identical volume of TexMACS. Plates were centrifuged 72 hours after addition of dynabeads, (300×g for 3 minutes) to pellet the cells and 60% of the supernatant was removed to a fresh plate for analysis by ELISA. After removal of 60% of the supernatant for subsequent ELISA, cell proliferation was assessed using the CCK-8 assay.
Average response by the standard compound, cyclosporin A, was 1 uM.

Rat DRG = test: Rat dorsal root ganglion excitability response (EFS, Ca2+ transients); type: cell-based; conditions: Rattus norvegicus; Table 3; electrical field stimulation, Ca5 indicator; read-out: Scoring (EC50, Rat DRG excitability)
Outline: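 Adult rat DRG cells cultured for 2 days were loaded with the Ca5 dye 1 h before electrical field stimulation under four protocols. Compounds were tested at six concentrations (typically top 30 μM, 1:3 steps, duplicate), added either 24 h before or directly before EFS. The read-out was the per-well peak/baseline fluorescence ratio change, with imaging used to check for toxicity.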

rats (male, Wistar) [3] = test: Rat monosodium iodoacetate-induced osteoarthritis; type: in vivo
Method: Representative compounds of the invention (i.e., test compounds) were administered to rats (male, Wistar) PO, QD, at 3 or 30 mg/kg, starting on Day 0 through to Day 21 of the study. Osteoarthritis was modeled by intra-articular injection of 3 mg of monosodium iodoacetate (MIA) in the right knee. Knee swelling, paw withdrawal threshold (mechanical allodynia) and the difference in weight bearing were measured on Day 0 (pre-induction) and on Days 3, 7, 14 and 21 post-MIA injection. Tramadol was used as a reference standard.

[4] = system: Rats (male, Sprague-Dawley); test: Spinal nerve ligation (neuropathic pain); type: in vivo; conditions: 10 mg/kg
From the text: Rats (male, Sprague-Dawley) were anaesthetized and placed in a prone position and the left paraspinal muscles were separated from the spinous processes at the L6-S2 levels. The L6 transverse process was carefully removed to visually identify the L4-L6 spinal nerves. The left L5 spinal nerves were isolated and tightly ligated with 6-0 silk thread. The skin was sutured to close the open tissue and animals were allowed to recover for 1 week before pain assessment. Basal readings for mechanical allodynia and thermal hyperalgesia were performed using a dynamic plantar aesthesiometer and plantar test surface, respectively, before surgery. On Day 7 following surgery, mechanical allodynia and thermal hyperalgesia were assessed and animals were randomized into treatment groups based on these baseline readings. […] Thermal hyperalgesia and mechanical allodynia were tested at 0, 60 and 120 minutes post administration of compounds on Days 7 and 14.

[5] = system: Rats (male, Sprague-Dawley); test: TNBS colitis assay in rats; type: in vivo; conditions: 10 mg/kg dose
Method: TNBS Colitis Assay of Representative Compounds in Rats Rats (male, Sprague-Dawley) were anaesthetized and a solution of TNBS (48 mg/kg) in ethanol, was instilled intra-rectally to induce colitis, 1 h after oral dosing of representative compounds of the invention (i.e., test compounds). Test compounds were dosed PO, QD for 7 days, using prednisolone as a reference standard. […] On Day 7, rats were euthanized and the colon was evaluated for length, weight, wall thickness, ulcer number and length and for the presence of adhesions and strictures. A colonic score was calculated based on the severity of the colonic parameters.

rats (male, Wistar) [6] = test: Complete Freund's Adjuvant (CFA) model of inflammatory pain in rats; type: in vivo; conditions: 30 mg/kg dose
Method: Representative compounds of the invention (i.e., test compounds) were tested in this model of inflammatory pain. The rats (male, Wistar) were acclimatized to the instruments (plantar test surface and dynamic plantar aesthesiometer) on two consecutive days prior to the initiation of the study. On Day 0, basal paw withdrawal latency and paw withdrawal threshold were taken and animals were randomized to different groups. Complete Freund's Adjuvant (CFA) at 1 mg/mL (0.1 mL) was injected into the plantar surface of right hind paw. Test compounds (3 or 30 mg/kg) were administered PO, twice (Day 0 and Day 1) or once, on Day 1 (24 h after CFA). Thermal hyperalgesia and mechanical allodynia were assessed at 0 (baseline), 1, 3 and 6 h after administration of the test compound on Day 1. Diclofenac was used as a reference compound, given once on Day 1.

Mice (male, C57Bl/6) [7] = test: Bleomycin lung fibrosis; type: in vivo
From the text: Mice (male, C57BL/6) were randomized into treatment groups and fibrosis was induced by intratracheal administration of bleomycin. Treatment with representative compounds of the invention (i.e., test compounds) or reference standard (pirfenidone) was initiated on Day −1 and administered daily unto Day 7 or Day 21. For groups undergoing bronchoalveolar lavage (BAL), the trachea was cannulated and infused with ice cold Hank's Balanced Salt Solution (HBSS, pH 7.2). The collected lavage fluid was analyzed for cell numbers (total and differential counts) and levels of soluble TGFβ and collagen. For other groups, the lungs were either snap-frozen or formalin-fixed for further analyses.

[8] = system: female Sprague-Dawley rats; test: Cyclophosphamide-induced cystitis in rats (visceral pain); type: in vivo; conditions: 300 mg/kg dose
Method: Representative compounds of the invention (i.e., test compounds) were administered to female Sprague-Dawley rats, for four days by oral gavage in 0.9% saline. Two hours after the fourth dose, the rats were challenged by intraperitoneal administration of cyclophosphamide (150 mg/kg). Referred mechanical sensitivity was measured four hours later by applying a series of eight von Frey filaments to the lower abdomen, three times each for 1-2 seconds with a 5 second interval between applications. Responses were scored (zero-no response; one-response, two-response and change of position, and three-response, change of position and licking the site or vocalization), totaled and the percent of maximal possible nociceptive score calculated. Ibuprofen was used as a reference standard.

male Sprague-Dawley rats = test: Rat chronic prostatitis/chronic pelvic pain (carrageenan); type: in vivo; conditions: 300 mg/kg
Method: Representative compounds of the invention (i.e., test compounds) were administered for 11 days by oral gavage in 0.9% saline (3, 10 or 30 mg/kg QD; 5 mL/kg dose volume) to male Sprague-Dawley rats. Carrageenan-mediated chronic prostatitis/chronic pelvic pain (CP/CPPS) established in rats (10 per group) by administration of an intraprostatic injection of carrageenan (˜12.5 μL/lobe of a 30 mg/mL solution) into both ventral prostate lobes, on Day 0. Referred mechanical sensitivity was measured on Days 0, 1, 3 and 7, 2 hours after test compound, or vehicle (saline) administration, by applying 6 von Frey filaments with increasing forces of 0.16-2 g to the scrotal skin area, 3 times each for 1-2 seconds, with a 5-second interval between applications. Responses were scored (zero-no response; one-reaction of the animal, two-jump, and three-licking the site) and expressed as the nociceptive threshold for each day of assessment. Ibuprofen was used as a reference standard.
According to the above assay, Compound Ia-1 restored nociceptive threshold to 65% of baseline on Day 3 at the 30 mg/kg dose as compared to the reference standard, ibuprofen (300 mg/kg), which restored the threshold to 120% of the baseline.

[9] = system: Rats (male, Sprague-Dawley); test: Rat carrageenan-induced hyperalgesia and paw edema; type: in vivo; conditions: 10 mg/kg, given 1 h prior to carrageenan challenge
Method: Representative compounds of the invention (i.e., test compounds) were administered PO, QD for 3 days prior to carrageenan injection, once at 1 h prior to carrageen, or at 5 min or 1 h post-challenge to rats (male, Sprague-Dawley). Rats received either an intraplantar injection of saline (sham) or carrageen (0.1 mL of a 2% solution [w/v]) in the right hind paw. Mechanical hyperalgesia (using an analgesymeter) and paw volume (using a digital plethysmometer) were measured at baseline (0 hr), 2, 4 and 6 h post carrageenan injection for all the animals. Celecoxib, given 1 h prior to carrageen challenge, was used as a reference standard.

CC(C)CCC[C@@H](C)[C@H]1CC[C@H]2[C@H](CN)[C@@H]([C@@]3(C)Cc4cn[nH]c4C[C@@H]3CO)CC[C@]12C [Ia-6, ((5R,6S)-5-((1R,3aS,4S,5S,7aR)-4-(aminomethyl)-7a-methyl-1-((R)-6-methylheptan-2-yl)octahydro-1H-inden-5-yl)-5-methyl-4,5,6,7-tetrahydro-1H-indazol-6-yl)methanol]
Scoring (% of drug remaining after 60 minutes, PDR60) [1]: A (a PDR^60 of 81 to 100%)
Scoring (% protection from 0-60 min) (Mice (male, C57Bl/6) [2]): C (a % protection of 31 to 60%)
IC50 (T cells): < 2 µM
EC50 (Rat DRG): 6 to 15 µM

COc1cccc(C2(O)CCCCC2CN(C)C)c1 (stereo not drawn) [tramadol, reference compound]
reduction difference in weight bearing as compared to the vehicle (rats (male, Wistar) [3]; 10 mg/kg): 79%
reduction in knee diameter as compared to the vehicle (rats (male, Wistar) [3]; Day 3, 30 mg/kg): 11%
overall increase in paw withdrawal threshold as compared to the vehicle [4]: 77%

C=C1CC[C@H]2[C@H](CN)[C@@H]([C@@]3(C)Cc4c(C)n[nH]c4C[C@@H]3CO)CC[C@]12C [Ia-32, ((5R,6S)-5-((3aS,4R,5S,7aS)-4-(aminomethyl)-7a-methyl-1-methyleneoctahydro-1H-inden-5-yl)-3,5-dimethyl-4,5,6,7-tetrahydro-1H-indazol-6-yl)methanol]
Scoring (% of drug remaining after 60 minutes, PDR60) [1]: B (a PDR^60 of 61 to 80%)
Scoring (% protection from 0-60 min) (Mice (male, C57Bl/6) [2]): C (a % protection of 31 to 60%)
IC50 (T cells): 6 to 15 µM
EC50 (Rat DRG): > 15 µM

C[C@]12C=CC(=O)C=C1CC[C@@H]1[C@@H]2[C@@H](O)C[C@@]2(C)[C@H]1CC[C@]2(O)C(=O)CO [prednisolone, reference compound]
reduction of the colonic score [5]: 68%

O=C(O)Cc1ccccc1Nc1c(Cl)cccc1Cl [diclofenac, reference compound]
increase in the paw withdrawal threshold (rats (male, Wistar) [6]): 62%

Cc1ccc(=O)n(-c2ccccc2)c1 [pirfenidone, reference compound]
reduction in BAL macrophages (Mice (male, C57Bl/6) [7]; Day 7, 100 mg/kg dose): 30%
reduction in fibrosis (Mice (male, C57Bl/6) [7]; Day 14, 100 mg/kg dose): 46%

CC(C)Cc1ccc(C(C)C(=O)O)cc1 (stereo not drawn) [ibuprofen, reference compound]
nociceptive threshold, % of baseline levels [8]: 123%
nociceptive threshold restored, % of the baseline (male Sprague-Dawley rats): 120%

Cc1ccc(-c2cc(C(F)(F)F)nn2-c2ccc(S(N)(=O)=O)cc2)cc1 [celecoxib, reference compound]
increase in the paw withdrawal threshold [9]: 59%
